One block for each molecule: values may come before it.
How the values were obtained:
[1] = target: Tyrosine-protein kinase Lyn (Homo sapiens, UniProt P07948); experiment: Selectivity interaction (KinomeScan (DiscoverX)) EUB0001049a LYN; conditions: at 1 µM
[2] = system: Tyrosine-protein kinase ABL1 (Homo sapiens), P00519 [Q252H]; experiment: Selectivity interaction (Ambit KINOMEscan and KiNATiv profiling in Jurkat cells) EUB0000090b ABL1; format: cell-based; conditions: at 1 µM
[3] = target: T1, Serine/threonine-protein kinase Sgk2 (Homo sapiens) (UniProt Q9HBY8); experiment: Selectivity interaction (Kinase panel (Z-LYTE Assay)) EUB0001632a SGK2; conditions: at 10 µM
T1 sequence (whole entry): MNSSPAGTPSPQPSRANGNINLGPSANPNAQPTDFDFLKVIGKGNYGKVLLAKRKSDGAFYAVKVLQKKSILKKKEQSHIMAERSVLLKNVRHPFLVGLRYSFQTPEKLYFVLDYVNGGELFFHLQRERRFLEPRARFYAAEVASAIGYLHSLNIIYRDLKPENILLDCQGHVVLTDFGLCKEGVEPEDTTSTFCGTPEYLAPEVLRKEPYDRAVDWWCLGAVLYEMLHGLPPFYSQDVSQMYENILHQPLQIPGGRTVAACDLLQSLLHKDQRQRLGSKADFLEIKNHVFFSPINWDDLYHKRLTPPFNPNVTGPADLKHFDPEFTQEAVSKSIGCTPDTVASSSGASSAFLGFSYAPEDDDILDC

[4] = Selectivity interaction (KinomeScan (DiscoverX)) EUB0001079a CDPK1; conditions: at 1 µM
[5] = target: CDK12/Cyclin K (Homo sapiens) (UniProt O75909+Q9NYV4); experiment: Selectivity interaction (ProQinase) EUB0000171b CDK12; format: protein-complex assay; conditions: at 1 µM
Chain of CDK12/Cyclin K (Homo sapiens) (O75909 whole entry, looked up): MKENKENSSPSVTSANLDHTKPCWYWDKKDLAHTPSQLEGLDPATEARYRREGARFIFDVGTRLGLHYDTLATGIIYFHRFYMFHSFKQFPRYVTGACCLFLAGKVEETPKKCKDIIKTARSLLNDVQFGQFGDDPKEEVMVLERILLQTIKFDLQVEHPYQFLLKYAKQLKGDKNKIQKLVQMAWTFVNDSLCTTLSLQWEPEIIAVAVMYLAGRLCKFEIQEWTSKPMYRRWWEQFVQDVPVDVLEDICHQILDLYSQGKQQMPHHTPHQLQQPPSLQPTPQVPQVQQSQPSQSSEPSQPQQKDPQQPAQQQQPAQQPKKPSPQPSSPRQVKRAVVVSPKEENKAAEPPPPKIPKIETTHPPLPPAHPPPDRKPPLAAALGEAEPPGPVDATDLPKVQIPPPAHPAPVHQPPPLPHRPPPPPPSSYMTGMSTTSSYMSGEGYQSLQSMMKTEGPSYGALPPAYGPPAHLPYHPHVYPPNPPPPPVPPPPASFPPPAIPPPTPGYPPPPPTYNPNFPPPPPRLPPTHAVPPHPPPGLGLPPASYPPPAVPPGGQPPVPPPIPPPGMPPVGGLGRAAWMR
Chain of CDK12/Cyclin K (Homo sapiens) (Q9NYV4 whole entry, looked up): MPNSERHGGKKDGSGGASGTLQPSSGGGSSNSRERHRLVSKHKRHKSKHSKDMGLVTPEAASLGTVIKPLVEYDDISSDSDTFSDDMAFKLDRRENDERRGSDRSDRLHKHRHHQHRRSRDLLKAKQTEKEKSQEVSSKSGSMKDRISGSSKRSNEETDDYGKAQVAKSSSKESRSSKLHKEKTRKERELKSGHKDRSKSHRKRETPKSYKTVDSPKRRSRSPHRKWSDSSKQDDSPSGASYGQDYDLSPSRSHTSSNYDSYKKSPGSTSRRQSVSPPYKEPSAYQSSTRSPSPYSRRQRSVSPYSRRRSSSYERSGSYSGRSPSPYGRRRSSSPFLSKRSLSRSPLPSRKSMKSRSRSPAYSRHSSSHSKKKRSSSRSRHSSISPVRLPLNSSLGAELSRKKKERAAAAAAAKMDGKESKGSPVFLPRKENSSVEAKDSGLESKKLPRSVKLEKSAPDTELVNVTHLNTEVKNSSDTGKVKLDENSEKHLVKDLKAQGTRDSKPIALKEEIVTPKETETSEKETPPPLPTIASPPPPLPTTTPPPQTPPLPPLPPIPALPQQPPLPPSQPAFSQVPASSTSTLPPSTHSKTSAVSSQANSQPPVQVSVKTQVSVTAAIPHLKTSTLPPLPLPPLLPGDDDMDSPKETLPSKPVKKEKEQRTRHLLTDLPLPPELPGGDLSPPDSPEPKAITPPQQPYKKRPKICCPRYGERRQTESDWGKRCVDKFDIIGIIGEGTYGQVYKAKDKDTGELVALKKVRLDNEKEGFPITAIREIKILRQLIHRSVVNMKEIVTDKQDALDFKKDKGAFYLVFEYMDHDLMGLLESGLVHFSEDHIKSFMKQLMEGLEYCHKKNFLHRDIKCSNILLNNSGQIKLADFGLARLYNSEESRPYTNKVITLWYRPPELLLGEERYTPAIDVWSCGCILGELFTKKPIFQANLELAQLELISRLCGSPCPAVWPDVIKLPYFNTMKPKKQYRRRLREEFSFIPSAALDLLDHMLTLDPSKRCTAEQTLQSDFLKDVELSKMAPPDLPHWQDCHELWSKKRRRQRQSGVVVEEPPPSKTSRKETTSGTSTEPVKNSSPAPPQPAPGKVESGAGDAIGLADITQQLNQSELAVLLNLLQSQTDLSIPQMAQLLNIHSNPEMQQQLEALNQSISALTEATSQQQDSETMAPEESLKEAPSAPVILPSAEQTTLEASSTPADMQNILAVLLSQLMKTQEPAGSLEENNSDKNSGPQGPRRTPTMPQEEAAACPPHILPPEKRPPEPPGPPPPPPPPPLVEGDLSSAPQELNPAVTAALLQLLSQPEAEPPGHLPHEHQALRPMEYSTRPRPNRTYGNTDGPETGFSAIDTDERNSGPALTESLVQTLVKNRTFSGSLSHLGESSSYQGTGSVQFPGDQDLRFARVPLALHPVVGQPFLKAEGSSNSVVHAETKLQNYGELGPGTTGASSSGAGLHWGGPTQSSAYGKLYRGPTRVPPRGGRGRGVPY

[6] = target: TGF-beta receptor type-2 (Homo sapiens) (UniProt P37173); experiment: Selectivity interaction (KinomeScan (DiscoverX)) EUB0000092b TGFBR2; conditions: at 10 µM
Chain of TGF-beta receptor type-2 (Homo sapiens) (P37173 whole entry): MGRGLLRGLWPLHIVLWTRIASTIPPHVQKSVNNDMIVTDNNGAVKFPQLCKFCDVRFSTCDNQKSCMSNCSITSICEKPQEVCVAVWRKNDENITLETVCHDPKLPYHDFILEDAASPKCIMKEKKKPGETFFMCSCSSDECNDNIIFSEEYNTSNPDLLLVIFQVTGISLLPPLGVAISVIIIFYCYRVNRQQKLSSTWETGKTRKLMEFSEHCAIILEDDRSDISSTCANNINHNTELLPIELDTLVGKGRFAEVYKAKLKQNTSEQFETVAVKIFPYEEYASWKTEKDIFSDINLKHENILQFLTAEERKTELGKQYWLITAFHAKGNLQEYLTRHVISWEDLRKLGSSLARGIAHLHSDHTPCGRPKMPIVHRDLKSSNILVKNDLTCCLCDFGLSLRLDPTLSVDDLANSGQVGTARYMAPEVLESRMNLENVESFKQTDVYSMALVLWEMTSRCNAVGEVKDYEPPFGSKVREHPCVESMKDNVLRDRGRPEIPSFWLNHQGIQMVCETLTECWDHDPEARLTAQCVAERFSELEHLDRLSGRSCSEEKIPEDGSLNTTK

[7] = target: T2, NUAK family SNF1-like kinase 1 (Homo sapiens) (UniProt O60285); experiment: Selectivity interaction (KinomeScan (DiscoverX)) EUB0000045b NUAK1
T2 sequence (whole entry): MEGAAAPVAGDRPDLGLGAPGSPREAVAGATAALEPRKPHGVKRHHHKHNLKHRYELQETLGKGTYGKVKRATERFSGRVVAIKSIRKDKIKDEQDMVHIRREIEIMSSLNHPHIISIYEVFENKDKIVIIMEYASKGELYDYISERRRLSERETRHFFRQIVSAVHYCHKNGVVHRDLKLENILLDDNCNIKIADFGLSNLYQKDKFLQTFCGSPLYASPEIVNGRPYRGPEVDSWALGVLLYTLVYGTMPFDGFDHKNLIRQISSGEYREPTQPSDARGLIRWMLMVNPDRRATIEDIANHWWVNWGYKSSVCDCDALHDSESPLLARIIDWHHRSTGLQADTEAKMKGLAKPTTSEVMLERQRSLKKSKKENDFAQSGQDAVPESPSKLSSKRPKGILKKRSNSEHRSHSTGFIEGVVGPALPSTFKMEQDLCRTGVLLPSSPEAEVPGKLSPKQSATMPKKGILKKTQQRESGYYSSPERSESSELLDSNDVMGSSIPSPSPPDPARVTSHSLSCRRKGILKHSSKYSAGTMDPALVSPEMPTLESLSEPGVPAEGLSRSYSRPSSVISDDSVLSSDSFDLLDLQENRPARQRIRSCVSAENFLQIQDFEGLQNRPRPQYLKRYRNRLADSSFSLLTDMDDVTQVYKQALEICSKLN

[8] = target: Serine/threonine-protein kinase Nek7 (Homo sapiens) (UniProt Q8TDX7); experiment: Selectivity interaction (ActivX KiNativ screen (ex vivo kinase selectivity in human PBMCs)) EUB0001619a NEK7; format: cell-based; conditions: PBMC, at 1 µM
Chain of Serine/threonine-protein kinase Nek7 (Homo sapiens) (Q8TDX7 whole entry, looked up): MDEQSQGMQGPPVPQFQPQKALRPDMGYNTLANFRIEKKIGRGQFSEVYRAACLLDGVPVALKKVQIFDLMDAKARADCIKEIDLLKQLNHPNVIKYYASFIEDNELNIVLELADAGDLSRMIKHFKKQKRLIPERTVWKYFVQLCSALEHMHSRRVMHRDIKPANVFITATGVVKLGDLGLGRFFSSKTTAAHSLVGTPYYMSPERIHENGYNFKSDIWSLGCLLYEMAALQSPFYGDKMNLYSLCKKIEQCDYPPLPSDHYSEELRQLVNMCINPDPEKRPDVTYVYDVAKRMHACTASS

[9] = target: T3, Tyrosine-protein kinase receptor TYRO3 (Homo sapiens) (UniProt Q06418); experiment: Selectivity interaction (SelectScreen profiling (Invitrogen)) EUB0000607a TYRO3; conditions: at 2 µM
T3 sequence (whole entry): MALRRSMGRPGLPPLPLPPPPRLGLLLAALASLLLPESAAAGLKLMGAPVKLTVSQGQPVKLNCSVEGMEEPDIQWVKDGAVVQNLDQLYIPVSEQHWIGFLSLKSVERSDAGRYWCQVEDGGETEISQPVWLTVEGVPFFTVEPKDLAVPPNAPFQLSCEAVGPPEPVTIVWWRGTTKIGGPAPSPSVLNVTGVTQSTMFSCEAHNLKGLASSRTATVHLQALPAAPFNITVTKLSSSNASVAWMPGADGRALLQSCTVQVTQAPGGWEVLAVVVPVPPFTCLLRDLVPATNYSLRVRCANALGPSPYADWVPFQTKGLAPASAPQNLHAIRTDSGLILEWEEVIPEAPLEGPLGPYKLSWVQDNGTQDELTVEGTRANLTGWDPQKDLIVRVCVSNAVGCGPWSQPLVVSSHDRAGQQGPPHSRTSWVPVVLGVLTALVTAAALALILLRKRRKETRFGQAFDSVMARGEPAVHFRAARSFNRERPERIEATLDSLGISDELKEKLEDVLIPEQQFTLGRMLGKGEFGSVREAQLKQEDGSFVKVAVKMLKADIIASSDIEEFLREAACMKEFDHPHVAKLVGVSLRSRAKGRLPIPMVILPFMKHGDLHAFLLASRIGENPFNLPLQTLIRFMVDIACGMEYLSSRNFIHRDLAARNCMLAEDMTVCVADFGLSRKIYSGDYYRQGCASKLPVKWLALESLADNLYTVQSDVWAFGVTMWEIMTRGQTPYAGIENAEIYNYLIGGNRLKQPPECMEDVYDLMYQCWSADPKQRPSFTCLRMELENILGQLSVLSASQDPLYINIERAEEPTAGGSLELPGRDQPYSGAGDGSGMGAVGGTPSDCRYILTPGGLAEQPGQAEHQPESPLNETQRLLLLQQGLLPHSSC

[10] = target: Casein kinase II subunit alpha (Homo sapiens, UniProt P68400); experiment: Selectivity interaction (Kinase panel (DSF assay)) EUB0001558a CSNK2A1
Chain of Casein kinase II subunit alpha (P68400 whole entry, looked up): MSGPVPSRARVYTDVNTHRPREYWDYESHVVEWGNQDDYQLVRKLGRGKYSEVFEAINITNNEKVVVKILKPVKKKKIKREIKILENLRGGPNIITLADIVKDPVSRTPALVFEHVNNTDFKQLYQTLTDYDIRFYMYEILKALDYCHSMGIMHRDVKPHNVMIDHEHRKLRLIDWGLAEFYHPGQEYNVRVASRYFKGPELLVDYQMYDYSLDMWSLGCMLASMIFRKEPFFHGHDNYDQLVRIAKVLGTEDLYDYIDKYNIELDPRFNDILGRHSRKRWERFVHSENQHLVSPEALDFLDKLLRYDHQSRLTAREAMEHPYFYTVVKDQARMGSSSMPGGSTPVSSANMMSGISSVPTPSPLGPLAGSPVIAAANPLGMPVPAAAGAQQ

Chain of Tyrosine-protein kinase Lyn (P07948 2-512 limits assumed): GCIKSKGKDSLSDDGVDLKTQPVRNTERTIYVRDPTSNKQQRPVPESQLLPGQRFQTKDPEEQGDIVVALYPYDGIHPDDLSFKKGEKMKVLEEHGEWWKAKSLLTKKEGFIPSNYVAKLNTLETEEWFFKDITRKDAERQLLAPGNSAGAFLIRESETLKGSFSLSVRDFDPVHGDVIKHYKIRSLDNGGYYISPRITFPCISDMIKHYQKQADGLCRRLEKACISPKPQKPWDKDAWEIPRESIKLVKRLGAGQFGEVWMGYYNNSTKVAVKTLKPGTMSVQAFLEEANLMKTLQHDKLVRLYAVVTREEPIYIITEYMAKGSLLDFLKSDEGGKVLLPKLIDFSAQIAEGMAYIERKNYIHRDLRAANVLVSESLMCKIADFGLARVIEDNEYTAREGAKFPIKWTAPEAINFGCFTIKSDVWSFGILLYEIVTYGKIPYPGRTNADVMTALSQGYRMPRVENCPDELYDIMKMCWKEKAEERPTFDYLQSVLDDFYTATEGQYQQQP

Structure (SMILES): COc1cc(Nc2nc(C)cc(-c3cnn4nc(OC)ccc34)n2)cc(C(F)(F)F)c1
- % of control [1]: 89%

Structure (SMILES): CN(C)C/C=C/C(=O)Nc1ccc(C(=O)N2CCCC(Nc3ncc(Cl)c(-c4c[nH]c5ccccc45)n3)C2)cc1 (stereo unspecified)
- % of control [2]: 100%

- % of control [3]: 8.85%
Structure (SMILES): Cn1cc(-n2cnc3c(NCc4nc5cc(Cl)c(Cl)cc5[nH]4)nc(N4CCOCC4)nc32)cn1

Structure (SMILES): Nc1cnc(N2CCc3cc(S(=O)(=O)Nc4c(F)cc(Cl)cc4F)cc(N4CCCC4=O)c32)nc1 [TP-020n]
- % of control [4]: 97%

- % of control [5]: 82%
Structure (SMILES): C=CC(=O)Nc1cccc(C(=O)Nc2ccc(Nc3cc(-c4[nH]c(SC)nc4C)ccn3)cc2)c1

Structure (SMILES): CCC(=O)N1CCN(c2ccc(-n3c(=O)ccc4cnc5ccc(-c6cnc7ccccc7c6)cc5c43)cc2C(F)(F)F)CC1
- % of control [6]: 77%

Structure (SMILES): C=CC(=O)Nc1cc(-n2c(=O)ccc3cnc4ccc(-c5ccc(NS(C)(=O)=O)cc5)cc4c32)ccc1C
- % of control ([7]; at 1 µM): 100%
- % of control ([7]; at 10 µM): 76%

Structure (SMILES): N#Cc1cccc(-c2c[nH]c3ncnc(N4CCOCC4)c23)c1
- % of inhibition [8]: -5%

Structure (SMILES): CNC(=O)Nc1ccc(-c2nc(N3CC4CCC(C3)O4)c3cnn(C4CCC5(CC4)OCCO5)c3n2)cc1
- % of inhibition [9]: 9%

Structure (SMILES): CC(C)(O)[C@H](F)CN1Cc2cc(NC(=O)c3cnn4cccnc34)c(N3CCOCC3)cc2C1=O
- dTM [10]: 0.3 K
